From US20230117034A1, “PYRAZOLOTRIAZINES” (Bayer Aktiengesellschaft, priority 2019, published 2023)
pIC50: −log10 of the molar value.

Columns and labels:
CDK9/CycT1 = biological target: T1, CDK9/CycT1 (Homo sapiens, UniProt P50750); experiment: CDK9/CycT1 high ATP kinase assay (TR-FRET, 2 mM ATP); type: biochemical; details: 2 mM ATP (high ATP); median; read-out: CDK9/CyclinT1, 2 mM ATP (high ATP), IC50 (median)
T1 construct: Recombinant full-length His-tagged human CDK9 and CycT1; purchased Life Technologies PV4131; host or cells: insect cells
T1 sequence (P50750 whole entry): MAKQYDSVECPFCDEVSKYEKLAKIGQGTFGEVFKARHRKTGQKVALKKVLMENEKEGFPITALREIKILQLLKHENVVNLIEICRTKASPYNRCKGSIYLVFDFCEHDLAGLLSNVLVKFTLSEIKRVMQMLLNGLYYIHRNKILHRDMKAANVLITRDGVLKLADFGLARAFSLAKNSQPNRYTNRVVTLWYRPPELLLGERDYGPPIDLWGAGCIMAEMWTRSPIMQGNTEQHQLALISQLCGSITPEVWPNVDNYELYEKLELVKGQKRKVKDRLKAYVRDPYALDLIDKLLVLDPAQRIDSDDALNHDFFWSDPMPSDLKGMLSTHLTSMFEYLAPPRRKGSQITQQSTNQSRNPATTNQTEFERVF
T1 sequence (O60563 whole entry partner): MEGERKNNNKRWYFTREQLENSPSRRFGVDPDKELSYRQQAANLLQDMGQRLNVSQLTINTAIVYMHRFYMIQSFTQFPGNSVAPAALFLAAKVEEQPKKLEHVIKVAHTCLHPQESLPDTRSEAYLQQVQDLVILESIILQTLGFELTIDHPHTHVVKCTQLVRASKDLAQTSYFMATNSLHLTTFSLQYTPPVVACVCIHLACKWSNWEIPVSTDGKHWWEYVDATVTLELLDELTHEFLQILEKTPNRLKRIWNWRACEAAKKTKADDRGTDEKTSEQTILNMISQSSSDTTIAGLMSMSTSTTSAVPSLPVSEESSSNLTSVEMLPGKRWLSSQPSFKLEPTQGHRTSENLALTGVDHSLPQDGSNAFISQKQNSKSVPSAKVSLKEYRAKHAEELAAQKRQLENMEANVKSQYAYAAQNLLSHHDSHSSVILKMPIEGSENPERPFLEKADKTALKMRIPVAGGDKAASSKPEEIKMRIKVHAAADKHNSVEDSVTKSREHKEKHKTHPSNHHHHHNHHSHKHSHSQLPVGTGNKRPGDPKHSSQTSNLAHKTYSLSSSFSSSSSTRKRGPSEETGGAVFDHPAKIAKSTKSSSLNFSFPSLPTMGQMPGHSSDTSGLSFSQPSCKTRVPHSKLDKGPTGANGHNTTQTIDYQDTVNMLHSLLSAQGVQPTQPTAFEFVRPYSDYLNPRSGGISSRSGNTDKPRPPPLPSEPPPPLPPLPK
Method: CDK9/CycT1-inhibitory activity of compounds of the present invention at a high ATP concentration after preincubation of enzyme and test compounds was quantified employing the CDK9/CycT1 TR-FRET assay as described in the following paragraphs.
Recombinant full-length His-tagged human CDK9 and CycT1, expressed in insect cells and purified by Ni-NTA affinity chromatography, were purchased from Life Technologies (Cat. No PV4131). As substrate for the kinase reaction biotinylated peptide biotin-Ttds-[…] (C-terminus in amide form) was used which can be purchased e.g. form the company JERINI peptide technologies (Berlin, Germany).
For the assay 50 nanoL of a 100 fold concentrated solution of the test compound in DMSO was pipetted into either a black low volume 384 well microtiter plate or a black 1536 well microtiter plate (both Greiner Bio-One, Frickenhausen, Germany), 2 microL of a solution of CDK9/CycT1 in aqueous assay buffer [50 millimol/L Tris/HCl pH 8.0, 10 millimol/L MgCl2, 1.0 millimol/L dithiothreitol, 0.1 millimol/L sodium ortho-vanadate, 0.01% (v/v) Nonidet-P40 (Sigma)] were added and the mixture was incubated for 15 min at 22° C. to allow pre-binding of the test compounds to the enzyme before the start of the kinase reaction. […] The concentration of CDK9/CycT1 was adjusted depending of the activity of the enzyme lot and was chosen appropriate to have the assay in the linear range, typical concentrations were in the range of 0.5 microg/ml.
(§1) The resulting mixture was incubated 1 h at 22° C. to allow the formation of complex between the phosphorylated biotinylated peptide and the detection reagents. Subsequently the amount of phosphorylated substrate was evaluated by measurement of the resonance energy transfer from the Eu-chelate to the streptavidine-XL. Therefore, the fluorescence emissions at 620 nm and 665 nm after excitation at 350 nm was measured in a TR-FRET reader, e.g. a Pherastar (BMG Labtechnologies, Offenburg, Germany) or a Viewlux (Perkin-Elmer). The ratio of the emissions at 665 nm and at […] was taken as the measure for the amount of phosphorylated substrate.

CDK12/CycK = CDK12/CycK (Homo sapiens, UniProt Q9NYV4); experiment: CDK12/CycK high ATP kinase assay (TR-FRET, 2 mM ATP); type: biochemical; details: 2 mM ATP (high ATP); median; read-out: CDK12/CyclinK, 2 mM ATP (high ATP), IC50-[mol/l] (median)
Sequence of CDK12/CycK (Q9NYV4 with tags, fused parts or gaps): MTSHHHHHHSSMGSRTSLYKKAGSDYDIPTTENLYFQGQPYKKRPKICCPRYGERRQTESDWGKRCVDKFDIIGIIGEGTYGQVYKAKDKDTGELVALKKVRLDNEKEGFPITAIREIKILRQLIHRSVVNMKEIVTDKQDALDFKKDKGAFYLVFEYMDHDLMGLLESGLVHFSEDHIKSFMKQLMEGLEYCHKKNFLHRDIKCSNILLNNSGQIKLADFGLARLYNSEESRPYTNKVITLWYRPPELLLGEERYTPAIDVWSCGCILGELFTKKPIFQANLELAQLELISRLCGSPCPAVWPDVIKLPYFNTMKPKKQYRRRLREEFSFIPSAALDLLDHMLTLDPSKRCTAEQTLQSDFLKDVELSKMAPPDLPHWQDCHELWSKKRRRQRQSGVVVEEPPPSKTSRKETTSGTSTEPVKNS
Sequence of CDK12/CycK (O75909 1-300 partner limits assumed): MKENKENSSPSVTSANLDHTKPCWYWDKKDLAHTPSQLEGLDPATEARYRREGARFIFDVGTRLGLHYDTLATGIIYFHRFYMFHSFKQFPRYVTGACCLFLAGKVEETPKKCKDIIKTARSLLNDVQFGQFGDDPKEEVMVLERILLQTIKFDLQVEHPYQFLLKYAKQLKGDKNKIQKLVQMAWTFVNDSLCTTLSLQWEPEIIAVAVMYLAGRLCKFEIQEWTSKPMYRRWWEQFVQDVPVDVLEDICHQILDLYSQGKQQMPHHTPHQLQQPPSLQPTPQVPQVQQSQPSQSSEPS
Method: In the context of the present invention, the term “IC50 CDK12 hATP” refers to the IC50 values obtained according to the assay described in this section (2.2) herein below, i.e. the IC50 values for the inhibition of CDK12 at high (2 mM) ATP.
CDK12/CycK-inhibitory activity of compounds of the present invention at 2 millimol/L adenosine-tri-phosphate (ATP) was quantified employing the TR-FRET (TR-FRET=Time Resolved Fluorescence Energy Transfer) based CDK12/CycK activity inhibition assay as described in the following paragraphs.
A complex of human recombinant CDK12 and human recombinant CycK (both N-terminally His-tagged, expression and purification as described above) was used as enzyme. As substrate for the kinase reaction biotinylated peptide biotin-Ahx-KFELLPTPPLSPSRRSGL (C-terminus in amid form) was used which can be purchased e.g. form the company Biosyntan (Berlin-Buch, Germany).
For the assay 50 nanoL of a 100 fold concentrated solution of the test compound in DMSO was pipetted into either a black low volume 384 well microtiter plate or a black 1536 well microtiter plate (both Greiner Bio-One, Frickenhausen, Germany), 2 microL of a solution of CDK12/CycK in aqueous assay buffer [25 millimol/L HEPES pH 7.5, 20 millimol/L MgCl2, 5 millimol/L β-glycerophosphate, 2 millimol/L EGTA, 1.0 millimol/L dithiothreitol, 0.01% (v/v) Nonidet-P40 (Sigma), 0.01% (w/v) bovine serum albumin] were added and the mixture was incubated for 15 min at 22° C. to allow pre-binding of the test compounds to the enzyme before the start of the kinase reaction. Then the kinase reaction was started by the addition of 3 microL of a solution ATP (3.33 millimol/L=>final conc. in the 5 microL assay volume is 2 millimol/L) and substrate (1.67 micromol/L=>final conc. in the 5 microL assay volume is 1 micromol/L) in assay buffer and the resulting mixture was incubated for a reaction time of 60 min at 22° C. The concentration of CDK12/CycK was adjusted depending of the activity of the enzyme lot and was chosen appropriate to have the assay in the linear range, typical concentrations were about 0.75 nanomol/L. The reaction was stopped by the addition of 3 microL of a solution of TR-FRET detection reagents (125 nanomol/L streptavidine-XL665 [Cisbio Bioassays, Codolet, France] and 0.67 nanomol/L anti-Phospho-c-Myc (Ser 62) (E1J4K)-antibody from Cell Signalling [#13748] and 2 nanomol/L LANCE EU-W1024 labeled anti-rabbit IgG antibody [Perkin-Elmer, product no. 0083]) in an aqueous EDTA-solution (133 millimol/L EDTA, 0.27% (w/v) bovine serum albumin in 66.7 millimol/L HEPES pH 7.5).
as §1, with “Pherastar FS” for “Pherastar”, “substrate. The data were normalised (enzyme reaction without inhibitor=0% inhibition, all other assay components but no enzyme=100% inhibition).” for “substrate.”

SMILES	pIC50 (CDK9/CycT1)	pIC50 (CDK12/CycK)
C[C@@H]1CN(c2nc(NCc3nnc(-c4ccccc4)[nH]3)n3ncc(Br)c3n2)C[C@H](C)N1C [Example 125, 8-bromo-N-[(5-phenyl-4H-1,2,4-triazol-3-yl)methyl]-2-[(3R,5S)-3,4,5-trimethylpiperazin-1-yl]pyrazolo[1,5-a][1,3,5]triazin-4-amine]	5.42	4.96
Fc1ccc(-c2nnc(CNc3nc(N4CCOCC4)nc4c(Br)cnn34)[nH]2)cc1F [Example 99, 8-bromo-N-{[5-(3,4-difluorophenyl)-4H-1,2,4-triazol-3-yl]methyl}-2-(morpholin-4-yl)pyrazolo[1,5-a][1,3,5]triazin-4-amine]	6.01	5.81
CCN1CCN(c2nc(NCc3nc4ccccc4[nH]3)n3ncc(Br)c3n2)CC1 [Example 137, N-[(1H-benzimidazol-2-yl)methyl]-8-bromo-2-(4-ethylpiperazin-1-yl)pyrazolo[1,5-a][1,3,5]triazin-4-amine]	< 4.70	4.89
CC(C)c1cnn2c(NCc3nc4ccccc4[nH]3)nc(N3CC4(COC4)C3)nc12 [Example 9, N-[(1H-benzimidazol-2-yl)methyl]-2-(2-oxa-6-azaspiro[3.3]heptan-6-yl)-8-(propan-2-yl)pyrazolo[1,5-a][1,3,5]triazin-4-amine]	< 4.70	< 4.70
CCC1COCCN1c1nc(NCc2nc3ccccc3[nH]2)n2ncc(Br)c2n1 (stereo not drawn) [Example 116, N-(1H-benzimidazol-2-ylmethyl)-8-bromo-2-(3-ethylmorpholin-4-yl)pyrazolo[1,5-a][1,3,5]triazin-4-amine]	< 4.70	5.17
NCCCc1cccc2[nH]c(CNc3nc(N4CCOCC4)nc4c(Br)cnn34)nc12.O=CO [Example 114, formic acid-N-{[4-(3-aminopropyl)-1H-benzimidazol-2-yl]methyl}-8-bromo-2-(morpholin-4-yl)pyrazolo[1,5-a][1,3,5]triazin-4-amine (1/1)]	< 4.70	5.09
C[C@@H]1CN(c2nc(NCc3nc4ccccc4[nH]3)n3ncc(Br)c3n2)C[C@H](C)N1 [Example 142, N-(1H-benzimidazol-2-ylmethyl)-8-bromo-2-[(3R,5S)-3,5-dimethylpiperazin-1-yl]pyrazolo[1,5-a][1,3,5]triazin-4-amine]	< 4.70	4.97
Fc1cc(-c2nnc(CNc3nc(N4CCOCC4)nc4c(Br)cnn34)[nH]2)cc(F)c1F [Example 100, 8-bromo-2-(morpholin-4-yl)-N-{[5-(3,4,5-trifluorophenyl)-4H-1,2,4-triazol-3-yl]methyl}pyrazolo[1,5-a][1,3,5]triazin-4-amine]	6.09	5.91
Brc1cnn2c(NCc3nc4ccccc4[nH]3)nc(N3CCN4CCC[C@H]4C3)nc12 [Example 148, N-[(1H-benzimidazol-2-yl)methyl]-8-bromo-2-[(8aS)-hexahydropyrrolo[1,2-a]pyrazin-2 (1 H)-yl]pyrazolo[1,5-a][1,3,5]triazin-4-amine]	< 4.70	4.97
C[C@@H]1CN(c2nc(NCc3nc4ccccc4[nH]3)n3ncc(Br)c3n2)C[C@H](C)N1C [Example 129, N-(1H-benzimidazol-2-ylmethyl)-8-bromo-2-[(3R,5S)-3,4,5-trimethylpiperazin-1-yl]pyrazolo[1,5-a][1,3,5]triazin-4-amine]	< 4.70	< 4.74
Brc1cnn2c(NCc3nc4ccccc4[nH]3)nc(N3CCN(C4CC4)CC3)nc12 [Example 138, N-[(1H-benzimidazol-2-yl)methyl]-8-bromo-2-(4-cyclopropylpiperazin-1-yl)pyrazolo[1,5-a][1,3,5]triazin-4-amine]	< 4.70	< 4.70
CC1(C)CN(c2nc(NCc3nc4ccccc4[nH]3)n3ncc(C4CC4)c3n2)CCO1 [Example 123, N-[(1H-benzimidazol-2-yl)methyl]-8-cyclopropyl-2-(2,2-dimethylmorpholin-4-yl)pyrazolo[1,5-a][1,3,5]triazin-4-amine]	< 4.70	4.90
Brc1cnn2c(NCc3nc4ccccc4[nH]3)nc(N3CCN4CCC[C@@H]4C3)nc12 [Example 149, N-[(1H-benzimidazol-2-yl)methyl]-8-bromo-2-[(8aR)-hexahydropyrrolo[1,2-a]pyrazin-2 (1 H)-yl]pyrazolo[1,5-a][1,3,5]triazin-4-amine]	< 4.70	5.21
CC(C)c1cnn2c(NCc3nc4ccccc4[nH]3)nc(N3CCOC[C@H]3C)nc12 [Example 7, N-[(1H-benzimidazol-2-yl)methyl]-2-[(3R)-3-methylmorpholin-4-yl]-8-(propan-2-yl)pyrazolo[1,5-a][1,3,5]triazin-4-amine]	< 4.70	4.99
Brc1cnn2c(NCc3nc4ccccc4[nH]3)nc(N3C[C@@H]4CCCN[C@@H]4C3)nc12 [Example 146, N-[(1H-benzimidazol-2-yl)methyl]-8-bromo-2-[(4aS,7aS)-octahydro-6H-pyrrolo[3,4-b]pyridin-6-yl]pyrazolo[1,5-a][1,3,5]triazin-4-amine]	< 4.70	5.05
COc1ccc2[nH]c(CNc3nc(N4CCN(C)CC4)nc4c(Br)cnn34)nc2c1 [Example 161, 8-bromo-N-[(5-methoxy-1H-benzimidazol-2-yl)methyl]-2-(4-methylpiperazin-1-yl)pyrazolo[1,5-a][1,3,5]triazin-4-amine]	< 4.70	5.02
Brc1cnn2c(NCc3nc4ccccc4[nH]3)nc(N3CCNCC3)nc12 [Example 128, N-[(1H-benzimidazol-2-yl)methyl]-8-bromo-2-(piperazin-1-yl)pyrazolo[1,5-a][1,3,5]triazin-4-amine]	< 4.70	4.96
Cc1ccc2[nH]c(CNc3nc(N4CCOCC4)nc4c(Br)cnn34)nc2c1 [Example 157, 8-bromo-N-[(5-methyl-1H-benzimidazol-2-yl)methyl]-2-(morpholin-4-yl)pyrazolo[1,5-a][1,3,5]triazin-4-amine]	< 4.70	6.17
